Test results published in patent publication US10017741B2, “Compositions and methods for obtaining enriched mesenchymal stem cell cultures” (StemCell Technologies Inc., priority 2013, dated 2018).
Entries after “also recorded” stand apart in the source; their conditions may differ.

How the values were obtained:
[1] = test system: mouse CB-derived cells (MSC colonies); assay: Mouse CB-derived CFU-F assay; assay type: cell-based; settings: 14 days
Experimental: a. Mouse BM and CB-Derived CFU-F Assay • 1. […] Medium was removed cultures washed with 2 mL PBS. • 4. Cells were fixed by adding 2 mL methanol/well and incubated at room temperature for 5 minutes. • 5. Methanol was removed and plates allowed to air dry for 5 minutes. • 6. To each well, 2 mL Toluidine blue solution was added and incubated for 30 minutes at room temperature. • 7. Toluidine blue solution was removed and wells rinsed with water. • 8. Water was removed and plates allowed to dry. • 9. Colony formation was assessed by enumeration and colony size. Mouse CB-derived cells were isolated as described previously and CFU-F assays setup as described above. […] Cultures were then stained with Toluidine blue and colony formation and appearance assessed. Three independent assays CFU-F assays for both BM- and CB-MSC were setup as in Example 4a and 4b. […] These assays were maintained for 14 days without media change. At the end of day 14, cultures were fixed and stained with toluidine blue and the number of MSC colonies counted.

[2] = test system: BM-derived cultures (macrophage contamination, MSC morphology); assay: Images of BM-derived expansion cultures; assay type: cell-based, mouse; settings: for macrophage contamination and MSC enrichment (images): BM
Experimental: (§1) c. Expansion of Human BM and Mouse BM and CB-Derived Cells Assay • 1. […] Cultures were allowed to grow for 10-14 days until adherent cells achieved 70 to 80% confluence. Mouse cultures were maintained under normal (5% CO2) or hypoxic conditions (5% CO2/5% O2) at 37 C in a cell culture incubator. Human cultures were maintained under 5% CO2 at 37 C in a humidified cell culture incubator. • 3. Adherent cells were passaged by releasing cultures from flask. Cultures were washed with 5 mL PBS and then 5 mL of 0.25% trypsin solution ([…] catalogue #07901) was added and the flasks incubated for 10 min at 37 C. To each flask, 5 mL complete medium was added to stop trypsin activity. • 4. Released cells were collected into a tube and centrifuged at 300×g for 5 minutes. • 5. Cells were resuspended in 2 mL of medium and counted using a hemocytometer. • 6. […] P1 cultures were incubated until they reached 70 to 80% confluence. • 8. Passaged cultures can be used at any time from P0 to P10 as needed for different applications.

[3] = test system: CB-derived cultures (macrophage contamination, MSC morphology); assay: Images of CB-derived expansion cultures; assay type: cell-based, mouse; settings: for macrophage contamination and MSC enrichment (images): CB
Experimental: as §1

human BM-derived MSCs = assay: Adipogenic and osteogenic differentiation of human BM-derived MSCs; assay type: cell-based; settings: human BM-MSC expanded to P2 in 1 μM, 3 weeks differentiation, Oil red O / silver nitrate
Experimental: as §1
BM-derived cultures were isolated as described above and expansion assays setup as described above. […] At the end of P2, cell were dissociated by trypsin digestion and replated at 3×10^4 cells/cm^2 in 12-well plates for differentiation assays. Differentiation cultures were maintained for 3 weeks in adipogenic or osteogenic differentiation media. […]

[4] = test system: CB-MSCs (CD45−/CD29+/Sca1+); assay: Total cell count with flow cytometry, CB-MSC cultures; assay type: cell-based, mouse
Experimental: d. Flow Cytometry Analysis • 1. Cultures of BM and CB-derived cells were trypsinized for 10 minutes and an equal volume of complete medium was added to cultures to stop trypsin activity • 2. Cell suspension was filtered through a 40 μm strainer, and cells counted using a hemocytometer • 3. Suspension was spun down at 300×g for 5 minutes. • 4. Supernatant was removed and cell pellet resuspended in FACS buffer (PBS with 2% FBS and 1 mM EDTA) • 5. A total of 1×10^5 cells in 300 μL FACS buffer was used for each flow cytometry analysis tube, including unstained, viability, compensation, and isotype controls. • 6. Cell suspensions were stained with fluorophore-labeled antibodies against CD45, CD11b, and Sca1, CD29, and viability dye. • 7. Cell suspensions were analyzed on a flow cytometer using compensation and isotype control to determine laser voltage and gating. • 8. Samples were gated on viable CD45^+ cells and 10,000 events per sample were collected. Alternatively, cells were gated on viable CD45^− cells and out of this gate the proportion of CD29+/Sca1^+ cells obtained.
Prior to flow cytometry, control and GW2580-treated cultures of BM- and CB-MSC were dissociated from tissue culture flasks by trypsinization and the total number of cells counted with the aid of a hemocytometer. Flow cytometry analysis was performed and the ratio of CD45^− cells and CD45^−/CD29^+/Sca1^+ cells applied to the total number of cells to obtain the actual number of these cells in culture (Table 2).

[5] = CB-MSC, assay 1, 1 uM GW2580, 1.0 × 10^5 cells plated
[6] = CB-MSC, assay 1, 1 uM GW2580, 2.5 × 10^5 cells plated
[7] = CB-MSC, assay 1, 1 uM GW2580, 5.0 × 10^4 cells plated
[8] = CB-MSC, assay 1, 1 uM GW2580, Sum of the three densities
[9] = CB-MSC, assay 2, 2.5 uM GW2580, 1.0 × 10^6 cells plated
[10] = CB-MSC, assay 2, 2.5 uM GW2580, 2.5 × 10^5 cells plated
[11] = CB-MSC, assay 2, 2.5 uM GW2580, 5.0 × 10^5 cells plated
[12] = CB-MSC, assay 2, 2.5 uM GW2580, Sum of the three densities
[13] = CB-MSC, assay 3, 2.5 uM GW2580, 1.0 × 10^6 cells plated
[14] = CB-MSC, assay 3, 2.5 uM GW2580, 2.5 × 10^5 cells plated
[15] = CB-MSC, assay 3, 2.5 uM GW2580, 5.0 × 10^5 cells plated
[16] = CB-MSC, assay 3, 2.5 uM GW2580, Sum of the three densities
[17] = CB-MSCs, 2.5 uM GW2580, 14 days during P0

## COc1ccc(COc2ccc(Cc3cnc(N)nc3N)cc2OC)cc1 [GW2580, 5-(3-Methoxy-4-((4-methoxybenzyl)oxy)benzyl)pyrimidine-2,4-diamine]
[1]; CB-MSC, 1 or 2.5 uM, three assays
  overall minimal increase in number of MSC colonies vs control: ≥ 20%
[1]; [5]
  % increase in number of MSC colonies vs control: 51%
  Number of MSC colonies: 77
[1]; [6]
  % increase in number of MSC colonies vs control: 30%
  Number of MSC colonies: 133
[1]; [7]
  % increase in number of MSC colonies vs control: 70%
  Number of MSC colonies: 46
[1]; [8]
  % increase in number of MSC colonies vs control: 42%
  Number of MSC colonies: 256
[1]; [9]
  % increase in number of MSC colonies vs control: 84%
  Number of MSC colonies: 83
[1]; [10]
  % increase in number of MSC colonies vs control: 25%
  Number of MSC colonies: 15
[1]; [11]
  % increase in number of MSC colonies vs control: 9%
  Number of MSC colonies: 36
[1]; [12]
  % increase in number of MSC colonies vs control: 49%
  Number of MSC colonies: 134
[1]; [13]
  % increase in number of MSC colonies vs control: 84%
  Number of MSC colonies: 147
[1]; [14]
  % increase in number of MSC colonies vs control: 25%
  Number of MSC colonies: 35
[1]; [15]
  % increase in number of MSC colonies vs control: 29%
  Number of MSC colonies: 89
[1]; [16]
  % increase in number of MSC colonies vs control: 53%
  Number of MSC colonies: 271
[1]; CB-derived, 1 μM
  increase in colony number compared to control cultures: at least 24%
[1]; CB-derived, 1 μM, Toluidine blue
  MSC CFU-F appearance (colony size, macrophages): bigger in size and have a much reduced number of macrophages; also recorded: larger, enriched MSC CFU-F that are mostly free of macrophages
[2]; 1 μM continuous P0-P3
  macrophage contamination and MSC enrichment (images): have reduced numbers of macrophages; also recorded: contain a much reduced number of these contaminating macrophages
[2]; 1 μM, P2
  macrophage contamination and MSC enrichment (images): a much reduced number of macrophages is observed; also recorded: enriched and mostly devoid of macrophage contamination
[2]; BM, 1, 5 and 10 μM
  macrophage contamination and MSC appearance (images): have reduced numbers of contaminating macrophages; also recorded: a noticeable decrease in macrophages was noticed
[3]; 1 μM continuous P0-P3
  macrophage contamination and MSC enrichment (images): have reduced numbers of macrophages; also recorded: contain a much reduced number of these contaminating macrophages
[3]; 1 μM, P2
  macrophage contamination and MSC enrichment (images): a much reduced number of macrophages is observed; also recorded: enriched and mostly devoid of macrophage contamination
[3]; CB, 1, 5 and 10 μM
  macrophage contamination and MSC appearance (images): have reduced numbers of contaminating macrophages; also recorded: a noticeable decrease in macrophages was noticed
Human BM-derived MSCs
  adipogenic and osteogenic differentiation vs control-expanded cultures: differentiated equally well
[4]; CB-MSC, 2.5 uM GW2580
  increase in number of CD45−/CD29+/Sca1+ MSCs vs control: 310%
[4]; [17]
  Actual number of cells, CD45−: 530,702
  Actual number of cells, CD45−/CD29+/Scal+: 507,616
  CD45−, Percent (Flow Cytometry): 95.45%
  total cells: 5.56E+05
[4]; CB-MSCs, 2.5 uM GW2580, 14 days during P0, out of CD45− gate
  CD45−/CD29+/Scal+, Percent (Flow Cytometry): 95.65%
